In paper PMC10669656, “ADMET and Solubility Analysis of New 5-Nitroisatine-Based Inhibitors of CDK2 Enzymes” (Biomedicines, 2023):
In brackets after ≈: the same amount, converted by molar mass. Several values for one entry are separate records, joined by “and”; a condition that tells them apart may be missing. Equal values may be shown once.

Experiments:
Assay type in all cases: physicochemical
[1] = Solubility in neat solvents, shake-flask with spectrophotometric determination; details: for solubility at 24 h: 25 °C, organic solvent or mixture, thermodynamic from solid
Method: (§1) The calibration curves for each derivative were obtained using successful dilutions of initial stock solutions followed by spectrophotometric measurements of the obtained solutions with decreasing concentration. The concentration ranges for the derivatives 1, 2, and 3 were 0.0081–0.0405 mg/mL, 0.0077–0.0385 mg/mL, and 0.0068–0.017 mg/mL, respectively. Methanol was used both as a solvent, as well as a reference for spectrophotometric measurements. […] The A360 spectrophotometer from AOE Instruments was used for the preparation of the calibration curves. […] Three calibration curves were prepared for each derivative and then averaged.
(§2) A multi-step procedure was employed in order to find the solubility of the studied derivatives in the selected solvents. First of all, the excess amount of the considered compound was added to test tubes containing either neat solvents or their mixtures with water in different proportions, thus forming binary solvents. Saturated solutions were obtained in this way, placed in a Shaker Incubator ES-20/60 from Biosan, and incubated for 24 h at 298.1 K. The temperature adjustment was possible with a 0.1-degree accuracy, and the variance within a 24 h cycle was 0.5 degrees. The samples were simultaneously mixed at 60 rev/min. After incubation, the samples were filtered with the help of plastic syringes equipped with PTFE filters with 0.22 µm pore size. The obtained filtrates were diluted with methanol in another set of test tubes. In order to determine the mole fractions of a solute in the solution, 1 mL of the filtered samples was weighed in 10 mL volumetric flasks using a RADWAG AS 110 R2.PLUS analytical balance. The samples diluted with methanol were measured spectrophotometrically using the same instrument as was used in the case of calibration curves. The spectra were recorded in the wavelength range of 190–500 nm, and the resolution was 1 nm. Methanol was used if further dilution of the sample was required, and it was also used as a reference for calibrating the spectrophotometer. The absorbance values at 315 nm, 321 nm, and 321 nm were taken into account for derivatives 1, 2, and 3, respectively. Based on the calibration curves, the concentration of the solute in the samples was determined together with its mole fraction. Three separate measurements were conducted, and the final values are the results of averaging them.

[2] = Solubility in DMSO-water binary mixtures; details: for solubility at 24 h: 25 °C, thermodynamic from solid
Method: as §1, §2

[3] = Solubility in NMP-water binary mixtures; details: for solubility at 24 h: thermodynamic from solid
Method: as §1, §2

[4] = neat γ-nonanoic lactone, 298.1 K

- solubility at 24 h ([1]; neat DMF, 298.1 K): 15300 µg/mL (≈ 47 mM)
- solubility at 24 h ([1]; neat DMP, 298.1 K): 290 µg/mL (≈ 0.892 mM)
- solubility at 24 h ([1]; neat DMSO, 298.1 K): 21400 µg/mL (≈ 65.8 mM)
- solubility at 24 h ([1]; neat NMP, 298.1 K): 32700 µg/mL (≈ 101 mM)
- solubility at 24 h ([1]; neat acetone, 298.1 K): 900 µg/mL (≈ 2.77 mM)
- solubility at 24 h ([1]; neat acetonitrile, 298.1 K): 610 µg/mL (≈ 1.88 mM)
- solubility at 24 h ([1]; neat cyrene, 298.1 K): 750 µg/mL (≈ 2.31 mM)
- solubility at 24 h ([1]; neat diglyme, 298.1 K): 1190 µg/mL (≈ 3.66 mM)
- solubility at 24 h ([1]; neat dioxane, 298.1 K): 960 µg/mL (≈ 2.95 mM)
- solubility at 24 h ([1]; neat ethyl lactate, 298.1 K): 560 µg/mL (≈ 1.72 mM)
- solubility at 24 h ([1]; neat methanol, 298.1 K): 310 µg/mL (≈ 0.953 mM)
- solubility at 24 h ([1]; neat tetraglyme, 298.1 K): 1790 µg/mL (≈ 5.5 mM)
- solubility at 24 h ([1]; neat triglyme, 298.1 K): 420 µg/mL (≈ 1.29 mM)
- solubility at 24 h ([1]; neat γ-heptalactone, 298.1 K): 1090 µg/mL (≈ 3.35 mM)
- solubility at 24 h [1, 4]: 710 µg/mL (≈ 2.18 mM)
- solubility at 24 h ([1]; neat 1-butanol): 70 µg/mL (≈ 0.215 mM)
- solubility x ([1]; neat 1-butanol, 298.1 K): 0.21 (0.01) × 10^−4 mole fraction
- solubility at 24 h ([1]; neat 1-propanol): 100 µg/mL (≈ 0.307 mM)
- solubility x ([1]; neat 1-propanol, 298.1 K): 0.23 (0.01) × 10^−4 mole fraction
- solubility at 24 h ([1]; neat 4FM): 3470 µg/mL (≈ 10.7 mM)
- solubility x ([1]; neat 4FM, 298.1 K): 1.06 (0.04) × 10^−3 mole fraction
- solubility x ([1]; neat DMP, 298.1 K): 1.05 (0.03) × 10^−4 mole fraction
- solubility x ([1]; neat acetonitrile, 298.1 K): 0.96 (0.03) × 10^−4 mole fraction
- solubility x ([1]; neat cyrene, 298.1 K): 2.36 (0.04) × 10^−4 mole fraction
- solubility x ([1]; neat diglyme, 298.1 K): 5.22 (0.10) × 10^−4 mole fraction
- solubility x ([1]; neat dioxane, 298.1 K): 2.49 (0.05) × 10^−4 mole fraction
- solubility at 24 h ([1]; neat ethanol): 150 µg/mL (≈ 0.461 mM)
- solubility x ([1]; neat ethanol, 298.1 K): 0.26 (0.01) × 10^−4 mole fraction
- solubility x ([1]; neat ethyl lactate, 298.1 K): 1.95 (0.04) × 10^−4 mole fraction
- solubility x ([1]; neat methanol, 298.1 K): 0.39 (0.01) × 10^−4 mole fraction
- solubility x ([1]; neat tetraglyme, 298.1 K): 1.20 (0.02) × 10^−3 mole fraction
- solubility x ([1]; neat triglyme, 298.1 K): 2.34 (0.06) × 10^−4 mole fraction
- solubility x ([1]; neat γ-heptalactone, 298.1 K): 4.25 (0.06) × 10^−4 mole fraction
- solubility x [1, 4]: 3.46 (0.07) × 10^−4 mole fraction
- solubility at 24 h ([1]; neat ε-caprolactone): 1010 µg/mL (≈ 3.1 mM)
- solubility x ([1]; neat ε-caprolactone, 298.1 K): 3.25 (0.09) × 10^−4 mole fraction
- solubility at 24 h ([2]; DMSO-water binary mixture, aqueous with cosolvent or surfactant or cyclodextrin, x*DMSO 0.1, 298.1 K): 3220 µg/mL (≈ 9.9 mM)
- solubility at 24 h ([2]; DMSO-water binary mixture, aqueous with cosolvent or surfactant or cyclodextrin, x*DMSO 0.2, 298.1 K): 6950 µg/mL (≈ 21.4 mM)
- solubility at 24 h ([2]; DMSO-water binary mixture, aqueous with cosolvent or surfactant or cyclodextrin, x*DMSO 0.3, 298.1 K): 10800 µg/mL (≈ 33.2 mM)
- solubility at 24 h ([2]; DMSO-water binary mixture, aqueous with cosolvent or surfactant or cyclodextrin, x*DMSO 0.4, 298.1 K): 14300 µg/mL (≈ 44 mM)
- solubility at 24 h ([2]; DMSO-water binary mixture, aqueous with cosolvent or surfactant or cyclodextrin, x*DMSO 0.5, 298.1 K): 18400 µg/mL (≈ 56.6 mM)
- solubility at 24 h ([2]; DMSO-water binary mixture, aqueous with cosolvent or surfactant or cyclodextrin, x*DMSO 0.6, 298.1 K): 21000 µg/mL (≈ 64.6 mM)
- solubility at 24 h ([2]; DMSO-water binary mixture, aqueous with cosolvent or surfactant or cyclodextrin, x*DMSO 0.7, 298.1 K): 24100 µg/mL (≈ 74.1 mM)
- solubility at 24 h ([2]; DMSO-water binary mixture, aqueous with cosolvent or surfactant or cyclodextrin, x*DMSO 0.8, 298.1 K): 25400 µg/mL (≈ 78.1 mM)
- solubility at 24 h ([2]; DMSO-water binary mixture, aqueous with cosolvent or surfactant or cyclodextrin, x*DMSO 0.9, 298.1 K): 24100 µg/mL (≈ 74.1 mM)
- solubility at 24 h ([2]; DMSO-water series, organic solvent or mixture, x*DMSO 1.0, 298.1 K): 21400 µg/mL (≈ 65.8 mM)
- solubility x ([2]; x*DMSO 0.1, 298.1 K): 2.11 (0.02) × 10^−4 mole fraction
- solubility x ([2]; x*DMSO 0.2, 298.1 K): 5.76 (0.06) × 10^−4 mole fraction
- solubility x ([2]; x*DMSO 0.3, 298.1 K): 1.08 (0.01) × 10^−3 mole fraction
- solubility x ([2]; x*DMSO 0.4, 298.1 K): 1.69 (0.02) × 10^−3 mole fraction
- solubility x ([2]; x*DMSO 0.5, 298.1 K): 2.46 (0.02) × 10^−3 mole fraction
- solubility x ([2]; x*DMSO 0.6, 298.1 K): 3.18 (0.03) × 10^−3 mole fraction
- solubility x ([2]; x*DMSO 0.7, 298.1 K): 4.01 (0.05) × 10^−3 mole fraction
- solubility x ([2]; x*DMSO 0.8, 298.1 K): 4.68 (0.03) × 10^−3 mole fraction
- solubility x ([2]; x*DMSO 0.9, 298.1 K): 4.86 (0.08) × 10^−3 mole fraction
- solubility x ([2]; x*DMSO 1.0, 298.1 K): 4.63 (0.14) × 10^−3 mole fraction
- solubility at 24 h ([3]; NMP-water binary mixture, x*NMP 0.1, 25 °C, aqueous with cosolvent or surfactant or cyclodextrin, x*NMP 0.1, 298.1 K): 5750 µg/mL (≈ 17.7 mM)
- solubility at 24 h ([3]; NMP-water binary mixture, x*NMP 0.2, 25 °C, aqueous with cosolvent or surfactant or cyclodextrin, x*NMP 0.2, 298.1 K): 12100 µg/mL (≈ 37.2 mM)
- solubility at 24 h ([3]; NMP-water binary mixture, x*NMP 0.3, 25 °C, aqueous with cosolvent or surfactant or cyclodextrin, x*NMP 0.3, 298.1 K): 18200 µg/mL (≈ 56 mM)
- solubility at 24 h ([3]; NMP-water binary mixture, x*NMP 0.4, 25 °C, aqueous with cosolvent or surfactant or cyclodextrin, x*NMP 0.4, 298.1 K): 23300 µg/mL (≈ 71.6 mM)
- solubility at 24 h ([3]; NMP-water binary mixture, x*NMP 0.7, 25 °C, aqueous with cosolvent or surfactant or cyclodextrin, x*NMP 0.7, 298.1 K): 34500 µg/mL (≈ 106 mM)
- solubility at 24 h ([3]; NMP-water binary mixture, x*NMP 0.8, 25 °C, aqueous with cosolvent or surfactant or cyclodextrin, x*NMP 0.8, 298.1 K): 35900 µg/mL (≈ 110 mM)
- solubility at 24 h ([3]; NMP-water binary mixture, x*NMP 0.9, 25 °C, aqueous with cosolvent or surfactant or cyclodextrin, x*NMP 0.9, 298.1 K): 34900 µg/mL (≈ 107 mM)
- solubility at 24 h ([3]; NMP-water binary solvent, 25 °C, aqueous with cosolvent or surfactant or cyclodextrin, x*NMP 0.5, 298.1 K): 29500 µg/mL (≈ 90.7 mM)
- solubility at 24 h ([3]; NMP-water binary solvent, 25 °C, aqueous with cosolvent or surfactant or cyclodextrin, x*NMP 0.6, 298.1 K): 33000 µg/mL (≈ 101 mM)
- solubility at 24 h ([3]; NMP-water series, x*NMP 1.0, 25 °C, organic solvent or mixture, x*NMP 1.0, 298.1 K): 32700 µg/mL (≈ 101 mM)
- solubility x ([3]; x*NMP 0.1, 298.1 K): 4.43 (0.05) × 10^−4 mole fraction
- solubility x ([3]; x*NMP 0.2, 298.1 K): 1.23 (0.01) × 10^−3 mole fraction
- solubility x ([3]; x*NMP 0.3, 298.1 K): 2.32 (0.03) × 10^−3 mole fraction
- solubility x ([3]; x*NMP 0.4, 298.1 K): 3.53 (0.04) × 10^−3 mole fraction
- solubility x ([3]; x*NMP 0.5, 298.1 K): 5.24 (0.06) × 10^−3 mole fraction
- solubility x ([3]; x*NMP 0.6, 298.1 K): 6.71 (0.08) × 10^−3 mole fraction
- solubility x ([3]; x*NMP 0.7, 298.1 K): 7.95 (0.08) × 10^−3 mole fraction
- solubility x ([3]; x*NMP 0.8, 298.1 K): 8.96 (0.09) × 10^−3 mole fraction
- solubility x ([3]; x*NMP 0.9, 298.1 K): 9.53 (0.11) × 10^−3 mole fraction
- solubility x ([3]; x*NMP 1.0, 298.1 K): 9.80 (0.13) × 10^−3 mole fraction
Structure (SMILES): Nc1cccc(C(=O)NN=C2C(=O)Nc3ccc([N+](=O)[O-])cc32)c1 [derivative 2, 3-Amino-N′-[5-nitro-2-oxo-1,2-dihydro-3H-indol-3-ylidene]benzohydrazide]
- solubility x ([1]; neat DMF, 298.1 K): 3.66 × 10^−3 mole fraction and 3.66 (0.06) × 10^−3 mole fraction
- solubility x ([1]; neat DMSO, 298.1 K): 4.63 × 10^−3 mole fraction and 4.63 (0.14) × 10^−3 mole fraction
- solubility x ([1]; neat NMP, 298.1 K): 9.80 × 10^−3 mole fraction and 9.80 (0.13) × 10^−3 mole fraction
